Results reported in patent US5294724A, “4-hydroxytetrahydropyran-2-ones and the corresponding dihydroxycarboxylic acid derivatives, salts and esters and a process for their preparation” (priority 1989, dated 1994).

Assays:
HMG-CoA reductase = target: T1, HMG-CoA reductase (Rattus norvegicus, UniProt P51639); test: Inhibition of HMG-CoA reductase activity in solubilized enzyme preparations from rat liver microsomes; assay type: biochemical; conditions: sodium salts of the dihydroxycarboxylic acids; mean of 3 parallel samples; read-out: IC50 (molar concentration necessary for a 50% inhibition)
T1 construct: solubilized enzyme preparations from liver microsomes of rats; from tissue; host or cells: rat liver microsomes (cholestyramine-induced rats), solubilized
T1 sequence (P51639 1-887): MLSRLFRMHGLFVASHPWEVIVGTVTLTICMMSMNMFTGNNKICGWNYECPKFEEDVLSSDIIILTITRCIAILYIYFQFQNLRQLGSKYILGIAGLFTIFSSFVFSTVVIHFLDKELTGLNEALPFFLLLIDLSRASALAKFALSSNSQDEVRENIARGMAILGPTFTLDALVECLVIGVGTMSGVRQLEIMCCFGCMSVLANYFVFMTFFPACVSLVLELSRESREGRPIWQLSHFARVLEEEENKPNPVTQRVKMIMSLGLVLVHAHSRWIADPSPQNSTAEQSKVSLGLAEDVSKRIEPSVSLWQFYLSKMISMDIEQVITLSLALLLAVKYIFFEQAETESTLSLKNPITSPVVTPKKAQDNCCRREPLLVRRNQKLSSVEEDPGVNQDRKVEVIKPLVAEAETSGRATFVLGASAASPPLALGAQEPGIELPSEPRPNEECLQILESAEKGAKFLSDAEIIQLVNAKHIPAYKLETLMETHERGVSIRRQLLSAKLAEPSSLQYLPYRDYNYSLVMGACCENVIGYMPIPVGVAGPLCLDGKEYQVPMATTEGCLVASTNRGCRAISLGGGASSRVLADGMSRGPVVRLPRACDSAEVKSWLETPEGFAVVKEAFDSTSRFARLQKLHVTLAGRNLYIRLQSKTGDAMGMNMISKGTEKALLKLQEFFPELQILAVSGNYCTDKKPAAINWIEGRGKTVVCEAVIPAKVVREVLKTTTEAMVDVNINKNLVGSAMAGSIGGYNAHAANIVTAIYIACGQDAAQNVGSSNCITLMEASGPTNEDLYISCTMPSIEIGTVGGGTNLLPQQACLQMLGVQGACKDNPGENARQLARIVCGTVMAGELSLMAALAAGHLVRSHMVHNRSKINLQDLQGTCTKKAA
Experimental: 1) Inhibition of HKG-CoA reductase activity in solubilized enzyme preparations from rat liver microsomes
HMG-CoA reductase activity was measured on solubilized enzyme preparations from liver microsomes of rats which had been induced by conversion into the day/night rhythm using cholestyramine (®Cuemid). (S,R)^14 C-HMG-CoA was used as a substrate, and the concentration of NADPH was maintained during the incubation by a regenerating system. The separation of ^14 C-mevalonate from substrate and other products (for example ^14 C-HMG) was carried out by column elution, the elution profile of each individual sample being determined. The regular addition of ^3 H-mevalonate was avoided as the determination gives the data relative to the inhibitory action. The enzyme-free control, the enzyme-containing normal mixture (=100%) and those containing preparation additives were in each case treated together in one series of experiments. The sodium salts of the dihydroxycarboxylic acids of the formula II were always employed as the preparation in this test. Each individual value was formed as the mean value of 3 parallel samples. The significance of the mean value differences between preparation-free and preparation-containing samples was evaluated by the t-test.

LDL [1] = test: Inhibition of Cu2+-catalyzed LDL oxidation in vitro; assay type: biochemical, porcine; conditions: 5 μM Cu2+, 2 hours at 37° C.; for IC50: fluorescence 430 nm, read-out: IC50 (50% inhibition of LDL oxidation)
Experimental: 6) Inhibition of Cu^2+ -catalyzed LDL oxidation in vitro LDL was isolated from porcine plasma which contained EDTA (1 mg/ml) by ultracentrifugation in salt solutions of NaCl/NaBr between the densities 1.019 and 1.063 g/ml (cf. R. J. Havel et al., J. Clin. Invest. 43, 1345 (1955)). LDL was then dialyzed against phosphate-buffered saline (160 mM NaCl, 10 mM NaH2 PO4), pH 7.4 and stored under nitrogen at 4° C. Before the oxidation process, the LDL fractions were diluted to a final protein concentration of 0.1 mg/ml using phosphate-buffered saline and 2.5 ml aliquot parts were pre-incubated under nitrogen with the test compounds (25 μl of ethanolic solution) for 1 hour at 37° C. (cf. McLean et al., Biochemistry 1989, 28, 321). For the Cu^2+ -catalyzed oxidation of LDL, 12.5 μl of a 1 mM CuSO4 solution were added to each sample, a 5 μM Cu^2+ concentration resulting. The incubation was carried out for 2 hours at 37° C. and in an air atmosphere. The fluorescence intensity was measured at 430 nm (excitation wavelength 365 nm) (cf. Steinbrecher, U. P., J. Biol. Chem. 1987, 262, 3603). […] In addition, the inhibition using a 10^-5 N concentration of the test compound is indicated in %.

serum total cholesterol = test: Hypocholesterolemic activity in rabbits after p.o. administration; assay type: in vivo, male white New Zealand rabbits; conditions: for Serum total cholesterol, % change compared to control group: rabbit p.o., 5 mg/kg per day (constant)
Experimental: 4) Hypocholesterolemic activity in rabbits after p.o. administration
Normolipemic male white New Zealand rabbits, body weight 3-3.5 kg, were divided into groups of 5 animals. The groups in each case received one of the test compounds (sodium salts of the compounds of the formula II), suspended in 1% aqueous methylcellulose (®Tylose MH 300), 5.10 or 20 mg/kg/day daily in the morning by stomach tube. The animals of the control groups received only Tylose MH 300. Every 3-4 days samples of venous blood were taken from all animals 20 hours after the oral administration. The serum total cholesterol was determined enzymatically in these samples using the test combination of Boehringer Mannheim (CHOD-PAP high performance method). The serum cholesterol level of the treated animals was compared with that of the control groups. A "discharge phase" followed the 20-day "treatment phase", in which the change in the serum cholesterol level was further monitored.

HEP G2 cells = test: Inhibition of cholesterol biosynthesis in cell cultures (HEP G2 cells), incorporation of 14C-sodium acetate in cholesterol; assay type: cell-based; conditions: for IC50 / IC70: Homo sapiens, HepG2, sodium salts, test compounds corrected by deviation of mevinolin sodium from its mean value; for IC50: read-out: IC50 (concentration necessary for a 50% inhibition); for IC70: read-out: IC70 (concentration necessary for a 70% inhibition); for Relative potency in % / Relative potency in % (value in parentheses): mevinolin sodium = 100; for Relative potency in %: from IC50; for Relative potency in % (value in parentheses): corresponds to IC70
Experimental: 2) Inhibition of cholesterol biosynthesis in cell cultures (EEP G2 cells)
Determination of the inhibition of the incorporation of ^14 C-sodium acetate in cholesterol
Monolayers of HEP G2 cells in lipoprotein-free medium were preincubated with various concentrations of the sodium salts of the dihydroxycarboxylic acids of the formula II for 1 hour. After adding ^14 C-labeled sodium acetate, the incubation was continued for 3 hours. Tritium-labeled cholesterol was added as an internal standard and an aliquot of the cells was subjected to alkaline hydrolysis. The lipids were extracted using chloroform/methanol 2: 1. After adding carrier cholesterol, the lipid mixture was preparatively separated on TLC plates using chloroform/acetone 9: 1. The cholesterol zone was made visible by staining with iodine vapor, additionally detected using a TLC radio scanner and then scraped off. The amount of ^14 C-cholesterol formed was determined scintigraphically and related to mg of cell protein. The same procedure was carried out with cells from the Bame culture without preincubation with a test compound (so-called "solvent control"). The potency of the test compounds was determined by comparison of the biosynthesized ^14 C-cholesterol in test runs and in "solvent control".

[2] = tested on: microsomal lipid peroxidation; test: Inhibition of microsomal lipid peroxidation (in vitro); assay type: biochemical; conditions: 10^-5 mol/l
Experimental: 5) Inhibition of microsomal lipid peroxidation (in vitro)
The inhibition of lipid peroxidation was measured under the experimental conditions described by H. Wafers and H. Sies, Eur. J. Biochem. 174, 353-357 (1988). The microsomes were obtained according to the literature cited therein. IC50 denotes the concentration of the test compound in moles per liter which causes a 50% inhibition of lipid peroxidation.

serum lipoproteins = test: Action on serum lipoproteins and other metabolic parameters of male rats in the subchronic test; assay type: in vivo; conditions: rat
Experimental: 3) Action on serum lipoproteins and other metabolic parameters of male rats in the subchronic test
Groups of male rats of the strain HOE: WISKf (SPF 71) having a starting weight of above 180 g received the test preparations daily in the morning (sodium salts of the dihydroxycarboxylic acids of the formula II) in polyethylene glycol 400 by stomach tube; the respective control group received only the vehicle. The last (7th) administration was carried out 24 hours before taking blood and sacrificing. There was free access to food and water during the experiment. 24 hours before taking blood, which wall carried out retroorbitally under slight ether anesthesia before and after the treatment period (i.e. on the 1st and 8th day), the food was withdrawn. Total cholesterol was determined in the serum of each individual animal [CHODPAP high performance method of Boehringer Mannheim], and, as a measure of the triglycerides, total glycerol was also determined analytically from the serum pool of all the animals of one group [GPO-PAP high performance method, Boehringer Mannheim].
Immediately after taking blood, the animals were sacrificed by dislocation of the spine, and the relative liver weight, the change in body weight and the food consumption were determined.
For the analysis of the serum lipoproteins, the serum of all the rats of one group was pooled. The serum lipoproteins were separated using the preparative ultracentrifuge.
The following conditions were used for the separation of the fractions VLDL, LDL and HDL:
The determination of the protein was carried out by the method of Lowry et al. [LOWRY O. H., ROSEBOROUGH, N.J., PARR, A. L. and RANDELL, R. J.: J. Biol. Chem. 193, 265 (1951)].

LDL [3] = conditions: cited from earlier work
[4] = 30 mg/kg daily by stomach tube, 7 administrations

| IC50 (HMG-CoA reductase) | IC50 (LDL [1]) | IC50 (HEP G2 cells) | Structure (SMILES) | Serum total cholesterol, % change compared to control group (serum total cholesterol; administration 3) | Serum total cholesterol, % change compared to control group (serum total cholesterol; administration 10) | Serum total cholesterol, % change compared to control group (serum total cholesterol; administration 14) | Serum total cholesterol, % change compared to control group (serum total cholesterol; discharge phase 3) | Serum total cholesterol, % change compared to control group (serum total cholesterol; discharge phase 6) | Serum total cholesterol, % change compared to control group (serum total cholesterol; discharge phase 11) | IC70 (HEP G2 cells) | Relative potency in % (HEP G2 cells) | Relative potency in % (value in parentheses) (HEP G2 cells) | Inhibition at 10^-5 mol/l [2] | further results |
| --- | --- | --- | --- | --- | --- | --- | --- | --- | --- | --- | --- | --- | --- | --- |
| 6 nM | > 10000 nM | 4.3 nM | CC(C)c1cc(Sc2ccc(F)cc2)cc(-c2ccc(F)cc2)c1OC[C@@H](O)C[C@@H](O)CC(=O)O [Example 1] | -44% | -46% | -43% | -22% | -17% | -6% | ~0.8 nM | 1163% | 18750% | < 10% | Inhibition at 10^-5 M (LDL [1]; 10^-5 M): 41%; onset of action / maximum action (serum total cholesterol; Table 4): commences very early on. The maximum action was virtually achieved even in the first measurement after 3 days of treatment; plasma cholesterol decrease compared with mevinolin and compound C (serum total cholesterol; Table 4, lower dosage): substantially greater plasma cholesterol decrease than mevinolin or the compound C in spite of lower dosage; Serum total cholesterol, % change compared to control group (serum total cholesterol; administration 17): -42%; Serum total cholesterol, % change compared to control group (serum total cholesterol; administration 20): -48% |
| 4 nM | 6000 nM | 7.5 nM | CC(C)c1c(OC[C@@H](O)C[C@@H](O)CC(=O)O)c(C(C)C)c(C(C)C)c(O)c1-c1ccc(F)cc1 [Example 9] | -8% | -12% | -15% | -4% | -4% | +6% | 12 nM | 667% | 1250% | < 10% |  |
|  | 500 nM |  | CC(C)(Sc1cc(C(C)(C)C)c(O)c(C(C)(C)C)c1)Sc1cc(C(C)(C)C)c(O)c(C(C)(C)C)c1 [probucol, reference compound] |  |  |  |  |  |  |  |  |  |  | Body weight, % changes in the mean value relative to starting (serum lipoproteins; [4]): +5%; Glycerol VLDL, % change compared to control (serum lipoproteins; [4]): +24%; Liver weight, % changes in the mean value relative to control (serum lipoproteins; [4]): +5%; Protein LDL, % change compared to control (serum lipoproteins; [4]): -23%; Protein VLDL, % change compared to control (serum lipoproteins; [4]): -6%; Total cholesterol HDL, % change compared to control (serum lipoproteins; [4]): -11%; Total cholesterol LDL, % change compared to control (serum lipoproteins; [4]): -24%; Total cholesterol VLDL, % change compared to control (serum lipoproteins; [4]): +4%; Cholesterol HDL/LDL (serum lipoproteins; 30 mg/kg daily, control standardization to 1.00): 0.97; oxidative modification of LDL in vivo (LDL [3]): prevents oxidative modification of LDL; biliary cholesterol excretion (LDL [3]; in vivo): increases biliary cholesterol excretion; lowering of LDL and HDL (LDL [3]; in vivo): lowers both LDL and HDL; plasma cholesterol-lowering action compared with a potent cholesterol biosynthesis inhibitor (such as mevinolin) (LDL [3]; in vivo): only poorly pronounced; rate of catabolism of LDL (LDL [3]; in vivo): increases the rate of catabolism of LDL |
